Assay results: ChEMBL document CHEMBL5154647, “Discovery of seneciobipyrrolidine derivatives for the amelioration of glucose homeostasis disorders through 4E-BP1/Akt/AMPK signaling activation” (Eur J Med Chem, 2022)

Experiments:
[1] = Toxicity in db/db mouse assessed as effect on muscle tissue morphology at 300 mg/kg, po bid administered for 21 days by H and E staining based microscopic analysis; format: organism-based; settings: in vivo, 504 h, time 21 day
[2] = Toxicity in db/db mouse assessed as reduction in triglyceride at 300 mg/kg, po administered for 21 days; format: organism-based; settings: in vivo, 504 h, time 21 day
[3] = Toxicity in db/db mouse assessed as increase in body weight at 300 mg/kg, po administered for 21 days; format: organism-based; settings: in vivo, 504 h, time 21 day
[4] = Toxicity in db/db mouse assessed as reduction in total cholesterol at 300 mg/kg, po administered for 21 days; format: organism-based; settings: in vivo, 504 h, time 21 day
Mus musculus [5] = assay: Antidiabetic activity in db/db mouse assessed as reduction in random blood glucose level at 300 mg/kg, po bid measured up to 21 days; format: functional; design: scale not given: the % may be the effect or the level left; settings: time <= 21 day
[6] = Toxicity in db/db mouse assessed as effect on pancreas morphology at 300 mg/kg, po bid administered for 21 days by H and E staining based microscopic analysis; format: organism-based; settings: in vivo, 504 h, time 21 day
Mus musculus [7] = assay: Antidiabetic activity in db/db mouse assessed as reduction in fasting blood glucose level at 300 mg/kg, po bid measured up to 21 days; format: functional; design: scale not given: the % may be the effect or the level left; settings: time <= 21 day
[8] = Toxicity in db/db mouse liver assessed as reduction of fat accumulation in liver at 300 mg/kg, po bid administered for 21 days by H and E staining based microscopic analysis; format: organism-based; settings: in vivo, 504 h, time 21 day
Mus musculus [9] = assay: Antidiabetic activity in db/db mouse assessed as reduction in blood glucose level at 300 mg/kg, po bid measured after 6 hrs; format: functional; design: scale not given: the % may be the effect or the level left

Q: With `CN(C)C(=N)NC(=N)N` [METFORMIN] as the molecule, how does the Activity [1] read?
A: Non-Toxic

Q: What about the Activity [2] of the same molecule?
A: Toxic

Q: And the Activity [3]?
A: Non-Toxic

Q: And the Activity [4]?
A: Toxic

Q: What about the Activity (Mus musculus [5]) of the same molecule?
A: 40.3%

Q: And the Activity [6]?
A: Non-Toxic

Q: What about the Activity (Mus musculus [7]) of the same molecule?
A: 26.6%

Q: What about the Activity [8] of the same molecule?
A: Toxic

Q: What about the Activity (Mus musculus [9]) of the same molecule?
A: 49.7%
